Assay results: patent US9181230B2, “Morpholine compounds and uses thereof” (Hoffmann-La Roche Inc., priority 2013, dated 2015)
Where a name gives a salt, the structure may show the parent alone.

Key:
mouse TAAR1 = mouse TAAR1 (Mus musculus (Mouse), UniProt Q923Y8); assay: Radioligand binding assay on mouse TAAR1; settings: mouse TAAR1, membranes of HEK-293 cells, first value of the cell pair mouse/rat
Description: (§1) For the construction of expression plasmids the coding sequences of human, rat and mouse TAAR 1 were amplified from genomic DNA essentially as described by Lindemann et al.. The Expand High Fidelity PCR System (Roche Diagnostics) was used with 1.5 mM Mg^2+ and purified PCR products were cloned into pCR2.1-TOPO cloning vector (Invitrogen) following the instructions of the manufacturer. PCR products were subcloned into the pIRESneo2 vector (BD Clontech, Palo Alto, Calif.), and expression vectors were sequence verified before introduction in cell lines.
(§2) HEK293 cells (ATCC # CRL-1573) were cultured essentially as described by Lindemann et al. (2005). For the generation of stably transfected cell lines HEK293 cells were transfected with the pIRESneo2 expression plasmids containing the TAAR coding sequences (described above) with Lipofectamine 2000 (Invitrogen) according to the instructions of the manufacturer, and 24 hrs post transfection the culture medium was supplemented with 1 mg/ml G418 (Sigma, Buchs, Switzerland). After a culture period of about 10 d clones were isolated, expanded and tested for responsiveness to trace amines (all compounds purchased from Sigma) with the cAMP Biotrak Enzyme immunoassay (EIA) System (Amersham) following the non-acetylation EIA procedure provided by the manufacturer.
(A) Radioligand Binding Assay on Mouse TAAR1
(§3) Membrane Preparation and Radioligand Binding.
(§4) HEK-293 cells stably expressing mouse TAAR1 were maintained at 37° C. and 5% CO2 in DMEM high glucose medium, containing fetal calf serum (10%, heat inactivated for 30 min at 56° C.), penicillin/streptomycin (1%), and 375 μg/ml geneticin (Gibco). Cells were released from culture flasks using trypsin/EDTA, harvested, washed twice with ice-cold PBS (without Ca^2+ and Mg^2+), pelleted at 1,000 rpm for 5 min at 4° C., frozen and stored at −80° C. Frozen pellets were suspended in 20 ml HEPES-NaOH (20 mM, pH 7.4) containing 10 mM EDTA and homogenized with a Polytron (PT 6000, Kinematica) at 14,000 rpm for 20 s. The homogenate was centrifuged at 48,000×g for 30 min at 4° C. Subsequently, the supernatant was removed and discarded, and the pellet resuspended in 20 ml HEPES-NaOH (20 mM, pH 7.4) containing 0.1 mM EDTA using the Polytron (20 s at 14,000 rpm). This procedure was repeated and the final pellet resuspended in HEPES-NaOH containing 0.1 mM EDTA and homogenized using the Polytron. Typically, aliquots of 2 ml membrane portions were stored at −80° C. With each new membrane batch the dissociation constant (Kd) was determined via a saturation curve. […] Nonspecific binding was defined as the amount of ^3[H]-(S)-4-[(ethyl-phenyl-amino)-methyl]-4,5-dihydro-oxazol-2-ylamine bound in the presence of 10 μM unlabeled ligand. All compounds were tested at a broad range of concentrations (10 pM to 10 μM) in duplicates. […] The 96 deep well plates were incubated for 1 hr at 4° C. Incubations were terminated by rapid filtration through Unifilter-96 plates (Packard Instrument Company) and glass filters GF/C (Perkin Elmer) presoaked for 1 hr in polyethylenimine (0.3%) and washed 3 times with 1 ml of cold binding buffer. After addition of 45 μl of Microscint 40 (PerkinElmer) the Unifilter-96 plate was sealed and after 1 hr the ratioactivity counted using a TopCount Microplate Scintillation Counter (Packard Instrument Company).

rat TAAR1 = rat TAAR1 (Rattus norvegicus (Rat), UniProt Q923Y9); assay: Radioligand binding assay on rat TAAR1; settings: rat TAAR1, membranes of HEK-293 cells, second value of the cell pair mouse/rat
Description: as §1, §2
(B) Radioligand Binding Assay on Rat TAAR1
as §3
as §4, with “rat” for “mouse”

rat TAAR1, sequence (Q923Y9 whole entry): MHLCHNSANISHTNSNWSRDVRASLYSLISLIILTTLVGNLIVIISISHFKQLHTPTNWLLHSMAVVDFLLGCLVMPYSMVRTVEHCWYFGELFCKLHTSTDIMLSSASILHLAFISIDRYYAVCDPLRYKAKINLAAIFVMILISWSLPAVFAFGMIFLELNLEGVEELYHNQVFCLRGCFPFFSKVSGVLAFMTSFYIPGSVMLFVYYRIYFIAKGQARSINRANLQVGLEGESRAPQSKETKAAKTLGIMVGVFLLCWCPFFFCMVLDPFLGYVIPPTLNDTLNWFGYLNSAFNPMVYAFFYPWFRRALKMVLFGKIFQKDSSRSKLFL
mouse TAAR1, sequence (Q923Y8 whole entry): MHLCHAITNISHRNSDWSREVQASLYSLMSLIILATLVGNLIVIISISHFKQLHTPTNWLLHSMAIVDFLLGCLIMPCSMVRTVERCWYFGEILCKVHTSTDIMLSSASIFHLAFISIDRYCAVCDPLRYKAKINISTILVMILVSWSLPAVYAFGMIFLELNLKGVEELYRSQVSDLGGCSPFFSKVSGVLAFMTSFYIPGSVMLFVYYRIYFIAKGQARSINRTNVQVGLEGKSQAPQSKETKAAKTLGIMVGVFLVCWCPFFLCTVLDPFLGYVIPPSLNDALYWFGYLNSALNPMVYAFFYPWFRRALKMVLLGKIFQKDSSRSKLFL

c1ccc2[nH]c(-c3ccc(C4CNCCO4)cc3)nc2c1 (stereo not drawn) [Example 1, 2-(4-(1H-Benzo[d]imidazol-2-yl)phenyl)morpholine hydrochloride]
Ki (mouse TAAR1): 0.038 µM
Ki (rat TAAR1): 0.76 µM

Clc1ccc2nc(-c3ccc(C4CNCCO4)cc3)[nH]c2c1 (stereo not drawn) [Example 2, 2-(4-(6-Chloro-1H-benzo[d]imidazol-2-yl)phenyl)morpholine hydrochloride]
Ki (mouse TAAR1): 0.0032 µM

Clc1ccc(-c2cc(-c3ccc(C4CNCCO4)cc3)n[nH]2)cc1 (stereo not drawn) [Example 3, 2-(4-(5-(4-Chlorophenyl)-1H-pyrazol-3-yl)phenyl)morpholine hydrochloride]
Ki (mouse TAAR1): 0.001 µM
Ki (rat TAAR1): 0.0034 µM

Fc1ccc(-c2cc(-c3ccc(C4CNCCO4)cc3)n[nH]2)cc1 (stereo not drawn) [Example 4, 2-(4-(5-(4-Fluorophenyl)-1H-pyrazol-3-yl)phenyl)morpholine hydrochloride]
Ki (mouse TAAR1): 0.0012 µM
Ki (rat TAAR1): 0.0059 µM

Clc1ccc(-c2cc(-c3ccc(C4CNCCO4)cc3)n[nH]2)cn1 (stereo not drawn) [Example 5, 2-(4-(5-(6-Chloropyridin-3-yl)-1H-pyrazol-3-yl)phenyl)morpholine hydrochloride]
Ki (mouse TAAR1): 0.0044 µM
Ki (rat TAAR1): 0.0631 µM

N#Cc1ccc(-c2cc(-c3ccc(C4CNCCO4)cc3)n[nH]2)cc1 (stereo not drawn) [Example 6, 4-(3-(4-(Morpholin-2-yl)phenyl)-1H-pyrazol-5-yl)benzonitrile hydrochloride]
Ki (mouse TAAR1): 0.0019 µM
Ki (rat TAAR1): 0.0335 µM

Brc1cnc2nc(-c3ccc([C@H]4CNCCO4)cc3)[nH]c2c1 [Example 7, (S)-2-(4-(6-bromo-1H-imidazo[4,5-b]pyridin-2-yl)phenyl)morpholine hydrochloride]
Ki (mouse TAAR1): 0.0089 µM

Clc1cccc(-c2cc(-c3ccc([C@H]4CNCCO4)cc3)n[nH]2)c1 [Example 9, (S)-2-(4-(5-(3-Chlorophenyl)-1H-pyrazol-3-yl)phenyl)morpholine hydrochloride]
Ki (mouse TAAR1): 0.0004 µM
Ki (rat TAAR1): 0.0021 µM

Fc1cc(F)c2nc(-c3ccc([C@H]4CNCCO4)cc3)[nH]c2c1 [Example 11, (S)-2-(4-(4,6-Difluoro-1H-benzo[d]imidazol-2-yl)phenyl)morpholine hydrochloride]
Ki (mouse TAAR1): 0.009 µM

Fc1ccc(-c2cc(-c3ccc([C@H]4CNCCO4)cc3)n[nH]2)c(F)c1 [Example 13, (S)-2-(4-(5-(2,4-Difluorophenyl)-1H-pyrazol-3-yl)phenyl)morpholine hydrochloride]
Ki (mouse TAAR1): 0.0003 µM

Fc1ccc(-c2cc(-c3ccc([C@@H]4CNCCO4)cc3)n[nH]2)c(F)c1 [Example 14, (R)-2-(4-(5-(2,4-Difluorophenyl)-1H-pyrazol-3-yl)phenyl)morpholine hydrochloride]
Ki (mouse TAAR1): 0.0008 µM

Cc1cc2nc(-c3ccc([C@H]4CNCCO4)cc3)[nH]c2cc1C [Example 16, (S)-2-(4-(5,6-Dimethyl-1H-benzo[d]imidazol-2-yl)phenyl)morpholine hydrochloride]
Ki (rat TAAR1): 1.14 µM

Fc1ccc(-n2cc(-c3ccc([C@H]4CNCCO4)cc3)nn2)cc1 [Example 18, (S)-2-(4-(1-(4-Fluorophenyl)-1H-1,2,3-triazol-4-yl)phenyl)morpholine hydrochloride]
Ki (mouse TAAR1): 0.002 µM

Fc1ccc(-c2ncn(-c3ccc([C@H]4CNCCO4)cc3)n2)cc1 [Example 25, (S)-2-(4-(3-(4-Fluorophenyl)-1H-1,2,4-triazol-1-yl)phenyl)morpholine hydrochloride]
Ki (mouse TAAR1): 0.0034 µM

Fc1ccc(-c2cn(-c3ccc([C@H]4CNCCO4)cc3)nn2)cc1 [Example 27, (S)-2-(4-(4-(4-Fluorophenyl)-1H-1,2,3-triazol-1-yl)phenyl)morpholine hydrochloride]
Ki (mouse TAAR1): 0.0004 µM

O=C(Nc1cc(-c2ccc([C@H]3CNCCO3)cc2)n[nH]1)c1ccc(F)cc1 [Example 30, (S)-4-Fluoro-N-(3-(4-(morpholin-2-yl)phenyl)-1H-pyrazol-5-yl)benzamide hydrochloride]
Ki (mouse TAAR1): 0.0022 µM

N#Cc1ccc(-c2cc(-c3ccc([C@H]4CNCCO4)cc3)n[nH]2)c(F)c1 [Example 33, (S)-3-Fluoro-4-(3-(4-(morpholin-2-yl)phenyl)-1H-pyrazol-5-yl)benzonitrile hydrochloride]
Ki (mouse TAAR1): 0.0016 µM

Fc1ccc(-n2cc(-c3ccc([C@@H]4CNCCO4)cc3)nn2)cc1 [Example 35, (R)-2-(4-(1-(4-Fluorophenyl)-1H-1,2,3-triazol-4-yl)phenyl)morpholine hydrochloride]
Ki (mouse TAAR1): 0.0017 µM

Fc1ccc(-c2ncn(-c3ccc([C@@H]4CNCCO4)cc3)n2)cc1 [Example 36, (R)-2-(4-(3-(4-Fluorophenyl)-1H-1,2,4-triazol-1-yl)phenyl)morpholine hydrochloride]
Ki (mouse TAAR1): 0.0097 µM

Fc1ccc(-c2cn(-c3ccc([C@@H]4CNCCO4)cc3)nn2)cc1 [Example 39, (R)-2-(4-(4-(4-Fluorophenyl)-1H-1,2,3-triazol-1-yl)phenyl)morpholine hydrochloride]
Ki (mouse TAAR1): 0.001 µM

Clc1cc(-c2cc(-c3ccc([C@H]4CNCCO4)cc3)n[nH]2)ccn1 [Example 42, (S)-2-(4-(5-(2-Chloropyridin-4-yl)-1H-pyrazol-3-yl)phenyl)morpholine hydrochloride]
Ki (mouse TAAR1): 0.0016 µM

Fc1ccc(-c2nc3cc([C@H]4CNCCO4)ccc3[nH]2)cc1 [Example 43, (S)-2-(2-(4-Fluorophenyl)-1H-benzo[d]imidazol-5-yl)morpholine hydrochloride]
Ki (mouse TAAR1): 0.0014 µM

Fc1ccc(-c2nc3cc([C@@H]4CNCCO4)ccc3[nH]2)cc1 [Example 44, (R)-2-(2-(4-Fluorophenyl)-1H-benzo[d]imidazol-5-yl)morpholine hydrochloride]
Ki (mouse TAAR1): 0.004 µM

c1cnc2[nH]c3ccc([C@H]4CNCCO4)cc3c2c1 [Example 45, (S)-2-(9H-Pyrido[2,3-b]indol-6-yl)morpholine hydrochloride]
Ki (rat TAAR1): 1 µM

FC(F)(F)c1ccc2c(n1)[nH]c1ccc([C@H]3CNCCO3)cc12 [Example 49, (S)-2-(2-(Trifluoromethyl)-9H-pyrido[2,3-b]indol-6-yl)morpholine hydrochloride]
Ki (mouse TAAR1): 0.0032 µM

FC(F)(F)c1cc(-c2nc3ccc([C@@H]4CNCCO4)cc3o2)ccn1 [Example 54, (R)-6-(Morpholin-2-yl)-2-(2-(trifluoromethyl)pyridin-4-yl)benzo[d]oxazole hydrochloride]
Ki (rat TAAR1): 0.448 µM

FC(F)(F)c1cc(-c2nc3ccc([C@H]4CNCCO4)cc3o2)ccn1 [Example 55, (S)-6-(Morpholin-2-yl)-2-(2-(trifluoromethyl)pyridin-4-yl)benzo[d]oxazole hydrochloride]
Ki (rat TAAR1): 0.304 µM
